Data reported in patent publication US20160083357A1, “NOVEL TETRAZOLONE DERIVATIVES” (Hoffmann-La Roche Inc., priority 2013, published 2016).
Where two headings read alike, the source gives them in different places.

Assays:
human CB2 receptors = molecular target: T1, human CB2 receptors (Homo sapiens, UniProt P34972); assay: cAMP assay, human CB2; type: cell-based
T1 construct: expressed in transfected cells; host or cells: CHO cells
Summary of the method: (§1)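 CHO cells expressing human CB1 or CB2, preincubated in Krebs Ringer bicarbonate with 1 mM IBMX, then compound for 30 min at 30° C. cAMP quantified by time-resolved FRET (cAMP-Nano-TRF) against a cAMP standard curve; EC50 values derived.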

human CB1 receptors = molecular target: T2, human CB1 receptors (Homo sapiens, UniProt P21554); assay: cAMP assay, human CB1; type: cell-based
T2 construct: expressed in transfected cells; host or cells: CHO cells
Summary of the method: as §1

[1] = functional cAMP assay, CHO cells expressing human CB2, read-out: Ec50: CB2 - hu cAMP
[2] = functional cAMP assay, CHO cells expressing human CB1, read-out: Ec50: CB1 - hu cAMP

T2 sequence (P21554 whole entry): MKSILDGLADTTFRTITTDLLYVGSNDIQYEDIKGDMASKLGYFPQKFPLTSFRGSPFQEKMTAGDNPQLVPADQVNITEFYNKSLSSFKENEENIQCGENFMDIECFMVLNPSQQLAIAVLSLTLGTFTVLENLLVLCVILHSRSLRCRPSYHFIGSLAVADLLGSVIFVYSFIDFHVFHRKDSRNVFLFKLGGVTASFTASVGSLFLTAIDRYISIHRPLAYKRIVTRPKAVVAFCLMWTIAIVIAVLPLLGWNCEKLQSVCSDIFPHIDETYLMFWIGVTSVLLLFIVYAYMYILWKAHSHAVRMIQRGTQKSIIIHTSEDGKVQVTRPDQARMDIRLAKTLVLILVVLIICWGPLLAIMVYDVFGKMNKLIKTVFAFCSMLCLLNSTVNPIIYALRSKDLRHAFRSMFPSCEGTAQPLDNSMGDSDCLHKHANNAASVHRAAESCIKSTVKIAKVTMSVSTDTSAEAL
T1 sequence (P34972 whole entry): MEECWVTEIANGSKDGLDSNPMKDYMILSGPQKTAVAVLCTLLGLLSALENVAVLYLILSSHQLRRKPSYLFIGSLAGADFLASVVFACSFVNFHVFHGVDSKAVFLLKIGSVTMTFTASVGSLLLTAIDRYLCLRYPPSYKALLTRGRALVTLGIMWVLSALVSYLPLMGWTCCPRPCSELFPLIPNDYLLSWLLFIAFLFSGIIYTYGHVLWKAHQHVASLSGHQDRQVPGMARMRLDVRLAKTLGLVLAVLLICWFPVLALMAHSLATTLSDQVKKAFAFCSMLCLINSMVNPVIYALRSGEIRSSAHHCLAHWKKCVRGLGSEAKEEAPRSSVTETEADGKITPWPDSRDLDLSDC

SMILES	EC50 (human CB2 receptors; [1])	EC50 (human CB1 receptors; [2])	EC50 (human CB2 receptors)	EC50 (human CB1 receptors)
COCCCN(C)C(=O)n1nnn(-c2cccc(OC(F)(F)F)c2)c1=O [Example 87, 5-Oxo-4-(3-trifluoromethoxy-phenyl)-4,5-dihydro-tetrazole-1-carboxylic acid (3-methoxy-propyl)-methyl-amide]			3.6 nM	> 10000 nM
COCCCN(C)C(=O)n1nnn(-c2ccc(Cl)cc2)c1=O [Example 88, 4-(4-Chloro-phenyl)-5-oxo-4,5-dihydro-tetrazole-1-carboxylic acid (3-methoxy-propyl)-methyl-amide]	1.9 nM	> 10000 nM		
O=C(CN1CCN(C(=O)n2nnn(-c3cccc(OC(F)(F)F)c3)c2=O)CC1)N1CCOCC1 [Example 90, 1-[4-(2-Morpholin-4-yl-2-oxo-ethyl)-piperazine-1-carbonyl]-4-(3-trifluoromethoxy-phenyl)-1,4-dihydro-tetrazol-5-one]	67 nM	> 10000 nM		
CN(C)C(=O)CN1CCN(C(=O)n2nnn(-c3cccc(OC(F)(F)F)c3)c2=O)CC1 [Example 93, N,N-Dimethyl-2-{4-[5-oxo-4-(3-trifluoromethoxy-phenyl)-4,5-dihydro-tetrazole-1-carbonyl]-piperazin-1-yl}-acetamide]	24.2 nM	> 10000 nM		
O=C(CN1CCN(C(=O)n2nnn(-c3ccc(Cl)cc3)c2=O)CC1)N1CCCC1 [Example 97, 1-(4-Chloro-phenyl)-4-[4-(2-oxo-2-pyrrolidin-1-yl-ethyl)-piperazine-1-carbonyl]-1,4-dihydro-tetrazol-5-one]	12.9 nM	> 10000 nM		
CCOCCN(CC)C(=O)n1nnn(-c2cccc(Cl)c2)c1=O [Example 98, 4-(3-Chloro-phenyl)-5-oxo-4,5-dihydro-tetrazole-1-carboxylic acid (2-ethoxy-ethyl)-ethyl-amide]			1.8 nM	> 10000 nM

Further lines, with some results ahead:

EC50 (human CB2 receptors; [1])	EC50 (human CB1 receptors; [2])	SMILES	EC50 (human CB2 receptors)	EC50 (human CB1 receptors)
16.9 nM	> 10000 nM	O=C(CN1CCN(C(=O)n2nnn(-c3cccc(Cl)c3)c2=O)CC1)N1CCOCC1 [Example 89, 1-(3-Chloro-phenyl)-4-[4-(2-morpholin-4-yl-2-oxo-ethyl)-piperazine-1-carbonyl]-1,4-dihydro-tetrazol-5-one]		
42.8 nM	> 10000 nM	O=C(CN1CCN(C(=O)n2nnn(-c3ccc(Cl)cc3)c2=O)CC1)N1CCOCC1 [Example 91, 1-(4-Chloro-phenyl)-4-[4-(2-morpholin-4-yl-2-oxo-ethyl)-piperazine-1-carbonyl]-1,4-dihydro-tetrazol-5-one]		
16.4 nM	> 10000 nM	CN(C)C(=O)CN1CCN(C(=O)n2nnn(-c3cccc(Cl)c3)c2=O)CC1 [Example 92, 2-{4-[4-(3-Chloro-phenyl)-5-oxo-4,5-dihydro-tetrazole-1-carbonyl]-piperazin-1-yl}-N,N-dimethyl-acetamide]		
21.1 nM	> 10000 nM	CN(C)C(=O)CN1CCN(C(=O)n2nnn(-c3ccc(Cl)cc3)c2=O)CC1 [Example 94, 2-{4-[4-(4-Chloro-phenyl)-5-oxo-4,5-dihydro-tetrazole-1-carbonyl]-piperazin-1-yl}-N,N-dimethyl-acetamide]		
4.7 nM	> 10000 nM	O=C(CN1CCN(C(=O)n2nnn(-c3cccc(Cl)c3)c2=O)CC1)N1CCCC1 [Example 95, 1-(3-Chloro-phenyl)-4-[4-(2-oxo-2-pyrrolidin-1-yl-ethyl)-piperazine-1-carbonyl]-1,4-dihydro-tetrazol-5-one]		
18.2 nM	> 10000 nM	O=C(CN1CCN(C(=O)n2nnn(-c3cccc(OC(F)(F)F)c3)c2=O)CC1)N1CCCC1 [Example 96, 1-[4-(2-Oxo-2-pyrrolidin-1-yl-ethyl)-piperazine-1-carbonyl]-4-(3-trifluoromethoxy-phenyl)-1,4-dihydro-tetrazol-5-one]		
12.5 nM	> 10000 nM	CCOCCN(CC)C(=O)n1nnn(-c2cccc(OC(F)(F)F)c2)c1=O [Example 99, 5-Oxo-4-(3-trifluoromethoxy-phenyl)-4,5-dihydro-tetrazole-1-carboxylic acid (2-ethoxy-ethyl)-ethyl-amide]		
